Values of other authors, collected in patent US6610702B2, “Ammonium salts of inositol hexaphosphate, and uses thereof” (GMP Oxycell, Inc., priority 2000, dated 2003).
Where two headings read alike, the source gives them in different places.

Experiments:
[1] = buffer 100 mM sodium phosphate, pH 7.0; cited from earlier work
human RBCs = settings: IHP encapsulated in human RBCs by continuous-flow electroporation; cited from earlier work
[2] = molecular target: allosteric site on hemoglobin (Homo sapiens, UniProt P68871); settings: displaces hemoglobin-bound 2,3-DPG; cited from earlier work
allosteric site on hemoglobin, sequence (P68871 2-147 limits assumed): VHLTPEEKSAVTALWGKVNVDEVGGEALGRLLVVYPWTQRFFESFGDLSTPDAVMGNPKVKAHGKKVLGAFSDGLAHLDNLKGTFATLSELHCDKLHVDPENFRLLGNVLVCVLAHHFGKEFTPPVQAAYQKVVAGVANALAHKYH
allosteric site on hemoglobin, sequence (P69905 2-142 partner limits assumed): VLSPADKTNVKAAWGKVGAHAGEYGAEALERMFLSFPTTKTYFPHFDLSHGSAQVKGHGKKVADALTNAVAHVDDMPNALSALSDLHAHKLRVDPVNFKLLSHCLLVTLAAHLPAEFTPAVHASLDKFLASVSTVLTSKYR

stripped hemoglobin = stripped hemoglobin (Homo sapiens, UniProt P68871); settings: pH 7.4, cited from earlier work
stripped hemoglobin, sequence (P68871 2-147 limits assumed): as the sequence (P68871 2-147 limits assumed) above
stripped hemoglobin, sequence (P69905 2-142 partner limits assumed): as the sequence (P69905 2-142 partner limits assumed) above

Row | SMILES | Octanol/buffer partition coefficient [1] | P50 of modified RBCs (human RBCs) | affinity for the allosteric site relative to 2,3-DPG [2] | half-saturation pressure P(O2) (½) of stripped hemoglobin (stripped hemoglobin; 25 C., stripped hemoglobin alone 4.3) [mm Hg] | half-saturation pressure P(O2) (½) of stripped hemoglobin (stripped hemoglobin; 37 C., stripped hemoglobin alone 9.3) [mm Hg]
1 | Cc1cn([C@H]2CC(O)[C@@H](CO)O2)c(=O)[nH]c1=O (some centres unmarked) | 0.064 | – | – | – | –
2 | O=P(O)(O)O[C@H]1[C@H](OP(=O)(O)O)[C@@H](OP(=O)(O)O)[C@H](OP(=O)(O)O)[C@@H](OP(=O)(O)O)[C@H]1OP(=O)(O)O [IHP, inositol hexaphosphate] | – | approximately 50 torr | one-thousand times greater affinity | 48.4 | 96.4
